In US10519134B2, “Pyrazole compounds and methods of making and using same” (Lundbeck La Jolla Research Center, Inc., priority 2015, dated 2019):

What was measured:
MAGL [1] = target: T1, MAGL (Mus musculus, UniProt O35678); experiment: In vitro competitive activity-based protein profiling (mouse), MAGL gel band; assay type: biochemical; details: for inhibition at 1 µM: read-out: MAGL % inh. 1 μM; for IC50: mouse
T1 construct: Proteomes (mouse brain membrane fraction or cell lysates); from tissue; host or cells: mouse brain membrane fraction (or cell lysates)
T1 sequence (O35678 1-303): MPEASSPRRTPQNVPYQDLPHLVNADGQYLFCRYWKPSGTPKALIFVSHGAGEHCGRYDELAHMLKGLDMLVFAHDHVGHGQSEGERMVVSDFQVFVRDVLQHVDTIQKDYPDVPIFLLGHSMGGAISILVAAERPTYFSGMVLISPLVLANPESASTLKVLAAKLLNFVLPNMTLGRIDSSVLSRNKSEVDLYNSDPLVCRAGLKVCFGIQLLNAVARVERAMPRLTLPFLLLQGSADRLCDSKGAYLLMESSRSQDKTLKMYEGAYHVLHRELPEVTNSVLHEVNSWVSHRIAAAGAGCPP
How it was run: (§1)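 Mouse brain membrane proteome or cell lysate (1.0 mg/mL protein) preincubated 30 min at 37 °C with varying inhibitor concentrations, then labelled 30 min at 37 °C with FP-Rh or HT-01 probe (50 μM stock). After SDS-PAGE, activity taken from fluorescent intensity of the MAGL and FAAH gel bands.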

FAAH = target: T2, FAAH (Mus musculus, UniProt O08914); experiment: In vitro competitive activity-based protein profiling (mouse), FAAH gel band; assay type: biochemical; details: for inhibition at 1 µM: read-out: FAAH % inh. 1 μM; for IC50: mouse
T2 construct: Proteomes (mouse brain membrane fraction or cell lysates); from tissue; host or cells: mouse brain membrane fraction (or cell lysates)
T2 sequence (O08914 1-579): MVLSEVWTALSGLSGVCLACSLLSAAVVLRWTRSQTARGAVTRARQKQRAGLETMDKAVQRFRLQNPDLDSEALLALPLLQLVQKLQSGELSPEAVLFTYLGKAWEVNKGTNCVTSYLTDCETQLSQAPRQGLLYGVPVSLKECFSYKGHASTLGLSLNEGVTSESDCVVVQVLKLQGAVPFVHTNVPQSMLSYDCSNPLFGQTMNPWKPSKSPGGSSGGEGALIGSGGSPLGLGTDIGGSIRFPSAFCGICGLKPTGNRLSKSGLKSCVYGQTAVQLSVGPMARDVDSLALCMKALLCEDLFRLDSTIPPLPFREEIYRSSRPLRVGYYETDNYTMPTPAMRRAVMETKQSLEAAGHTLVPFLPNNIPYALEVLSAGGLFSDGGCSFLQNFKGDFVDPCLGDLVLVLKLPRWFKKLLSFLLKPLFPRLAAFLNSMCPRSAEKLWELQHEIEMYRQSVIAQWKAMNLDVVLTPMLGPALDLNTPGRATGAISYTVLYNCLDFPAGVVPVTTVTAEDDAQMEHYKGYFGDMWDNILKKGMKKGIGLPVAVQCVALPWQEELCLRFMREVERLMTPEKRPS
How it was run: as §1

MAGL [2] = target: T3, MAGL (Homo sapiens, UniProt Q99685); experiment: In vitro competitive activity-based protein profiling (human), MAGL gel band; assay type: biochemical
T3 construct: Proteomes (human prefrontal cortex or cell membrane fractions); from tissue; host or cells: human prefrontal cortex (or cell membrane fractions)
T3 sequence (Q99685 1-303): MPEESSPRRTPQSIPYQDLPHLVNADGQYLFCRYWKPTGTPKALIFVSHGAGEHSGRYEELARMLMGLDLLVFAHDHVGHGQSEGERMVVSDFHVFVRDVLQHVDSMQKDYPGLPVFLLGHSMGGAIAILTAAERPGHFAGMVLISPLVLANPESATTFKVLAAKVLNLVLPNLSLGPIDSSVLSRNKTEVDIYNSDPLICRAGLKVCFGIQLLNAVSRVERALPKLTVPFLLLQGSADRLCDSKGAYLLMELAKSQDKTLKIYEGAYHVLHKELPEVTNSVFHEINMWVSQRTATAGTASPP
Protocol: In Vitro Competitive Activity-Based Protein Profiling (Human).
Proteomes (human prefrontal cortex or cell membrane fractions) (50 μL, 1.0-2.0 mg/mL total protein concentration) were preincubated with varying concentrations of inhibitors at 37° C. After 30 min, FP-Rh or JW912 (1.0 μL, 50 μM in DMSO) was added and the mixture was incubated for another 30 min at room temperature. Reactions were quenched with SDS loading buffer (15 μL—4×) and run on SDS-PAGE. Following gel imaging, serine hydrolase activity was determined by measuring fluorescent intensity of gel bands corresponding to MAGL using ImageJ 1.49k software.

MAGL [3] = target: T1, MAGL; experiment: Mouse brain proteomes from inhibitor treated mice (oral gavage, sacrificed 4 h after administration); assay type: in vivo; details: read-out: MAGL % inh. 5 mg/kg
How it was run: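 Wild-type C57Bl/6J mice got compound by oral gavage in polyethylene glycol vehicle. Brain proteomes were prepared 4 h after dosing and analyzed for serine hydrolase activity.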

SMILES	inhibition at 1 µM (MAGL [1]) [%]	inhibition at 1 µM (FAAH) [%]	IC50 (MAGL [2]) [nM]	inhibition at 1 µM (MAGL [2]; at 1 μM, read-out: MAGL human % inh at 1 μM) [%]	IC50 (MAGL [1]) [nM]	IC50 (FAAH) [nM]	inhibition at 5 mg/kg (MAGL [3]) [%]
Cc1cc(CN2CCCC23CCN(C(=O)n2ccc(NC(=O)C(F)F)n2)CC3)ccc1Cl [Example 257, N-(1-(1-(4-chloro-3-methylbenzyl)-1,8-diazaspiro[4.5]decane-8-carbonyl)-1H-pyrazol-3-yl)-2,2-difluoroacetamide]	≥ 75	0 to 25	≤ 100				
CS(=O)(=O)Nc1ccn(C(=O)N2CCN(Cc3ccc(C(F)(F)F)c(N4CCC(C(N)=O)CC4)c3)CC2)n1 [Example 291, 1-(5-((4-(3-(methylsulfonamido)-1H-pyrazole-1-carbonyl)piperazin-1-yl)methyl)-2-(trifluoromethyl)phenyl)piperidine-4-carboxamide]	0 to 25	0 to 25		25			
CS(=O)(=O)Nc1ccn(C(=O)N2CCN(Cc3ccc(C(F)(F)F)cc3N3CCN(C(=O)N4CCC4)CC3)CC2)n1 [Example 187, N-(1-(4-(2-(4-(azetidine-1-carbonyl)piperazin-1-yl)-4-(trifluoromethyl)benzyl)piperazine-1-carbonyl)-1H-pyrazol-3-yl) methanesulfonamide]	≥ 75	0 to 25	100 to 1000				
CS(=O)(=O)Nc1ccn(C(=O)N2CCN(Cc3ccc(C(F)(F)F)cc3-c3ncon3)CC2)n1 [Example 112, N-(1-(4-(2-(1,2,4-oxadiazol-3-yl)-4-(trifluoromethyl)benzyl)piperazine-1-carbonyl)-1H-pyrazol-3-yl)methanesulfonamide]	≥ 75	0 to 25	≤ 100				
CS(=O)(=O)Nc1ccn(C(=O)N2CCN(Cc3ccc(C(F)(F)F)cc3-c3ccc(C(F)(F)F)nc3)CC2)n1 [Example 212, N-(1-(4-(4-(trifluoromethyl)-2-(6-(trifluoromethyl)pyridin-3-yl)benzyl)piperazine-1-carbonyl)-1H-pyrazol-3-yl) methanesulfonamide]	≥ 75	0 to 25	100 to 1000				
CS(=O)(=O)Nc1ccn(C(=O)N2CCN(Cc3ccc(C(F)(F)F)cc3N3CCC4(CCN(S(C)(=O)=O)CC4)C3)CC2)n1 [Example 235, N-(1-(4-(2-(8-(methylsulfonyl)-2,8-diazaspiro[4.5]decan-2-yl)-4-(trifluoromethyl)benzyl)piperazine-1-carbonyl)-1H-pyrazol-3-yl) methanesulfonamide]	≥ 75	0 to 25	≤ 100				
CC(=O)N1CCN(c2cc(C(F)(F)F)ccc2CN2CCN(C(=O)n3ccc(NS(C)(=O)=O)n3)CC2)CC1 [Example 174, N-(1-(4-(2-(4-acetylpiperazin-1-yl)-4-(trifluoromethyl)benzyl)piperazine-1-carbonyl)-1H-pyrazol-3-yl) methanesulfonamide]	≥ 75	0 to 25	≤ 100				
CS(=O)(=O)Nc1ccn(C(=O)N2CCN(Cc3ccc(C(F)(F)F)cc3N3CCN(C(N)=O)CC3)CC2)n1 [Example 171, 4-(2-((4-(3-(methylsulfonamido)-1H-pyrazole-1-carbonyl)piperazin-1-yl)methyl)-5-(trifluoromethyl)phenyl)piperazine-1-carboxamide]	≥ 75	0 to 25	≤ 100				
CC(=O)N1CC2CN(c3cc(CN4CCN(C(=O)n5ccc(NS(C)(=O)=O)n5)CC4)ccc3Cl)CC2C1 (centres unmarked) [Example 215, N-(1-(4-(3-(5-acetylhexahydro-pyrrolo[3,4-c]pyrrol-2(1H)-yl)-4-chlorobenzyl)piperazine-1-carbonyl)-1H-pyrazol-3-yl) methanesulfonamide]	≥ 75	0 to 25	100 to 1000				
CS(=O)(=O)Nc1ccn(C(=O)N2CCN(Cc3ccc(C(F)(F)F)cc3-c3nnco3)CC2)n1 [Example 113, N-(1-(4-(2-(1,3,4-oxadiazol-2-yl)-4-(trifluoromethyl)benzyl)piperazine-1-carbonyl)-1H-pyrazol-3-yl)methanesulfonamide]	≥ 75	0 to 25	100 to 1000				
CC(=O)Nc1ccn(C(=O)N2CCN(Cc3cc(Oc4cncnc4)cc(C(F)(F)F)c3)CC2)n1 [Example 74, N-(1-(4-(3-(pyrimidin-5-yloxy)-5-(trifluoromethyl)benzyl)piperazine-1-carbonyl)-1H-pyrazol-3-yl)acetamide]	≥ 75	0 to 25			≤ 100	1000 to 10000	25 to 50
CC(=O)Nc1ccn(C(=O)N2CCN(Cc3ccc(C(F)(F)F)cc3OC3CCN(C4CC4)CC3)CC2)n1 [Example 71, N-(1-(4-(2-(1-cyclopropylpiperidin-4-yloxy)-4-(trifluoromethyl)benzyl)piperazine-1-carbonyl)-1H-pyrazol-3-yl)acetamide]	≥ 75	0 to 25			≤ 100	1000 to 10000	25 to 50
CC(=O)Nc1ccn(C(=O)N2CCN(Cc3cc(OC4CCS(=O)(=O)CC4)cc(C(F)(F)F)c3)CC2)n1 [Example 78, N-(1-(4-(3-((1,1-dioxidotetrahydro-2H-thiopyran-4-yl)oxy)-5-(trifluoromethyl)benzyl)piperazine-1-carbonyl)-1H-pyrazol-3-yl)acetamide]	≥ 75	0 to 25			≤ 100	1000 to 10000	0 to 25
CC(=O)Nc1ccn(C(=O)N2CCN(Cc3ccc(C(F)(F)F)cc3N3CCCC3)CC2)n1 [Example 1, N-(1-(4-(2-(pyrrolidin-1-yl)-4-(trifluoromethyl)benzyl)piperazine-1-carbonyl)-1H-pyrazol-3-yl)acetamide]	≥ 75	0 to 25			≤ 100	1000 to 10000	≥ 75
CC(=O)Nc1ccn(C(=O)N2CCC3(CCCN3Cc3ccc(C(F)(F)F)c(C(N)=O)c3)CC2)n1 [Example 107, 5-((8-(3-acetamido-1H-pyrazole-1-carbonyl)-1,8-diazaspiro[4.5]decan-1-yl)methyl)-2-(trifluoromethyl)benzamide]	≥ 75	0 to 25			100 to 1000	1000 to 10000	0 to 25
CC(=O)Nc1ccn(C(=O)N2CCN(Cc3ccc(C(F)(F)F)cc3N3CC4COCC4C3)CC2)n1 (centres unmarked) [Example 49, N-(1-(4-(2-(dihydro-1H-furo[3,4-c]pyrrol-5(3H,6H,6aH)-yl)-4-(trifluoromethyl)benzyl)piperazine-1-carbonyl)-1H-pyrazol-3-yl)acetamide]	≥ 75	0 to 25			≤ 100	1000 to 10000	0 to 25
CC(=O)Nc1ccn(C(=O)N2CCC3(CCCN3Cc3cc(N4CCCC4)cc(C(F)(F)F)c3)CC2)n1 [Example 61, N-(1-(1-(3-(pyrrolidin-1-yl)-5-(trifluoromethyl)benzyl)-1,8-diazaspiro[4.5]decane-8-carbonyl)-1H-pyrazol-3-yl)acetamide]	≥ 75	0 to 25			≤ 100	1000 to 10000	0 to 25
